Assay results taken from ChEMBL document CHEMBL6127051, “Hydrazinecarboxamides: Comprehensive review of their anticancer, anticonvulsive, anti-inflammatory, enzyme inhibition, antioxidant and other activities” (Eur J Med Chem, 2024).
pEC50, pIC50: −log10 of the molar value.

Columns and labels:
MCF7 [1] = assay: Cytotoxicity against human MCF7 cells assessed as reduction in cell growth; format: functional, cell-based
Mus musculus [2] = assay: Anticonvulsant activity in ip dosed scPTZ induced Kunming mouse seizure model; format: functional
A549 [3] = assay: Anticancer activity against human A549 cells assessed as inhibition of cell growth at 3 uM incubated for 48 hrs by MTT assay relative to control; format: functional; parameters: scale not given: the % may be the effect or the level left
PC-3 = assay: Anticancer activity against human PC-3 cells assessed as inhibition of cell growth at 3 uM incubated for 48 hrs by MTT assay relative to control; format: functional; parameters: scale not given: the % may be the effect or the level left
MCF7 [4] = assay: Anticancer activity against human MCF7 cells assessed as reduction in cell growth measured after 3 days by MTT assay; format: functional, cell-based; conditions: MCF7, 72 h
MCF7 [5] = assay: Antiproliferative activity against human MCF7 cells assessed as reduction in cell viability incubated for 72 hrs by MTT assay; format: functional, cell-based; conditions: MCF7, 72 h
A549 [6] = assay: Antiproliferative activity against human A549 cells assessed as reduction in cell viability by MTT assay; format: functional, cell-based
A549 [7] = assay: Antiproliferative activity against human A549 cells; format: functional, cell-based
[8] = Inhibition of Escherichia coli beta-glucuronidase
[9] = Antioxidant activity assessed as DPPH radical scavenging activity at 10 ug/ml; format: functional; conditions: dose 10.0 µg/ml
Cholinesterase = Cholinesterase (Equus caballus, UniProt P81908); assay: Inhibition of equine serum BChE using butyrylthiocholine iodide as substrate measured after 15 mins by Ellman's method
Mus musculus [10] = assay: Anticonvulsant activity in po dosed scPTZ induced mouse model measured after 4 hrs; format: functional
NCI-H460 = assay: Antiproliferative activity against human NCI-H460 cells by MTT assay; format: functional, cell-based
MCF7 [11] = assay: Antiproliferative activity against human MCF7 cells by MTT assay; format: functional, cell-based
MCF7 [12] = assay: Antiproliferative activity against human MCF7 cells; format: functional, cell-based
MDA-MB-231 = assay: Antiproliferative activity against human MDA-MB-231 cells; format: functional, cell-based
MCF7 [13] = assay: Antiproliferative activity against human MCF7 cells assessed as reduction in cell viability measured for 72 hrs by MTT assay; format: functional, cell-based; conditions: MCF7, 72 h
HepG2 = assay: Antiproliferative activity against human HepG2 cells assessed as reduction in cell viability measured for 24 hrs by MTT assay; conditions: HepG2, 24 h
A549 [14] = assay: Antiproliferative activity against human A549 cells assessed as reduction in cell viability measured for 24 hrs by MTT assay; conditions: A549, 24 h
[15] = target: T1, Retinoic acid receptor RXR-alpha (Homo sapiens, UniProt P19793); assay: Antagonist activity at RXRalpha (unknown origin) by Alpha Screen assay
T1 sequence (P19793 whole entry): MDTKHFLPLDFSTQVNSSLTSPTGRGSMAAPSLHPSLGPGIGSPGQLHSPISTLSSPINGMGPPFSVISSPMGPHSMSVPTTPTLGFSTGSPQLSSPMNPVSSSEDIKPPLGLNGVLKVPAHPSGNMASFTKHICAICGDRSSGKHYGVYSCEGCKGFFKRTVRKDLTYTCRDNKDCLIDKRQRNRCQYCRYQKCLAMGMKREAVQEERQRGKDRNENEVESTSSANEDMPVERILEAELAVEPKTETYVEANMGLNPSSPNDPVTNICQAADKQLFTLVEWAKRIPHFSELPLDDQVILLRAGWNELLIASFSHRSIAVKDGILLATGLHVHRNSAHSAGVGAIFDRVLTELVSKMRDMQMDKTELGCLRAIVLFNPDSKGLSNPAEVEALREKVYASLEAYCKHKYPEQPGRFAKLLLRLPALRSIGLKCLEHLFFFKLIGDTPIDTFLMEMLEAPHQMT

Mus musculus [16] = assay: Anticonvulsant activity in ip dosed MES induced Kunming mouse seizure model; format: functional
UO-31 = assay: Antiproliferative activity against human UO-31 cells assessed as inhibition of cell growth at 10 uM relative to control; format: functional; parameters: scale not given: the % may be the effect or the level left
[17] = Antioxidant activity assessed as ABTS radical scavenging activity after 30 mins by spectrophotometric analysis; format: functional

Cholinesterase, sequence (P81908 whole entry): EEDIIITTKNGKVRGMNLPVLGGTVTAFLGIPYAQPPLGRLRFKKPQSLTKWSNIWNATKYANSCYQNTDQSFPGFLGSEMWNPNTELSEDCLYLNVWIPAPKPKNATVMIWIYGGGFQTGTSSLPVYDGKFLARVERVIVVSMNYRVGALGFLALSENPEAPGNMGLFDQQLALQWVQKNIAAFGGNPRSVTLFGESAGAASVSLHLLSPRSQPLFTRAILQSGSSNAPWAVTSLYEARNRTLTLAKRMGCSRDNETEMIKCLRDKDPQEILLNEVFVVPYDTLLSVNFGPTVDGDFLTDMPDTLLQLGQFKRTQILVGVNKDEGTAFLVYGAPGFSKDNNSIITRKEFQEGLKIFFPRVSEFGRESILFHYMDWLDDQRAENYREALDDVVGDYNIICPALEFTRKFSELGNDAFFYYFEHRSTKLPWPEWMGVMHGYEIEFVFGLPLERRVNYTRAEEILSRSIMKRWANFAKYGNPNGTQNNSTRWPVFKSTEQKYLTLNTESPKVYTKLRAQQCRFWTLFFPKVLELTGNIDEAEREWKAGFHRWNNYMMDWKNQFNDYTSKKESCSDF

O=C(NO)NNC(=O)n1nnc2ccccc21
pIC50 (MCF7 [1]): 4.10

CCOC(=O)C1(NC(=O)NNc2ccc(F)cc2)CC1(C)C (centres undefined)
ED50 (Mus musculus [2]): 9.2 mg/kg

COc1ccc(C(C)(C)C)cc1NC(=O)NNC1=NS(=O)(=O)c2ccccc2N1c1ccccc1
Activity (A549 [3]): 99% | Activity (PC-3): >=71%

COc1cc(NC(C)CCCNC(=O)NNC(=O)/C=C/c2ccc(OC)c(OC)c2)c2ncccc2c1 (centres undefined)
pIC50 (MCF7 [4]): 7.52

COc1cc(NC(C)CCCNC(=O)NNC(=O)NOC(=O)c2ccccc2)c2ncccc2c1 (centres undefined)
pIC50 (MCF7 [5]): 6.00 | pIC50 (A549 [6]): 5.40 | pIC50 (A549 [7]): 5.82

O=C(NNC(=O)n1nnc2ccccc21)NOC(=O)c1ccccc1
pIC50 (MCF7 [1]): 4.10

COc1ccc(CC(=O)NNC(=O)Nc2ccccc2OC)cc1
pIC50 [8]: 4.77

COc1ccc(/C=C2\N=C(C)N(NC(=O)N3c4ccccc4C=Cc4ccccc43)C2=O)c(OC)c1
Activity [9]: 73.9%

COc1cc(/C=C2\N=C(C)N(NC(=O)N3c4ccccc4C=Cc4ccccc43)C2=O)cc(OC)c1OC
Activity [9]: 73.9%

COc1cc(NC(C)CCCNC(=O)NNC(=O)/C=C/c2cc(C(F)(F)F)cc(C(F)(F)F)c2)c2ncccc2c1 (centres undefined)
pIC50 (MCF7 [4]): 7.52

CCCCCCCCCCCCCCCNC(=O)NNC(=O)c1ccc(C(F)(F)F)cc1
pIC50 (Cholinesterase): 4.24

CC1(C)CC12NC(=O)N(Nc1ccc([N+](=O)[O-])cc1[N+](=O)[O-])C2=O (centres undefined)
ED50 (Mus musculus [10]): 126 mg/kg

O=C(NNC1=NS(=O)(=O)c2ccccc2N1c1ccccc1)Nc1cc(C(F)(F)F)cc(C(F)(F)F)c1
Activity (A549 [3]): 99% | Activity (PC-3): >=71%

Cc1nc(-c2cccnc2)ccc1C(=O)NNC(=O)Nc1c(Cl)cc(Cl)cc1Cl
pIC50 (NCI-H460): 5.05 | pIC50 (MCF7 [11]): 5.05

Cc1ccc(NC(=O)NNC(=O)c2cc3ccccc3[nH]2)cc1
pIC50 (MCF7 [12]): 5.04 | pIC50 (MDA-MB-231): 5.04 | pIC50 (MCF7 [13]): 5.92

CC(C)(C)NC(=O)NNC(=O)c1ccc(Nc2nccc(-c3ccncc3)n2)cc1
pIC50 (HepG2): 5.66 | pIC50 (A549 [14]): 5.08 | pEC50 [15]: 5.98

CC(C)N1C(=O)C(=O)N(NCC(=O)N(c2ccccc2)C2(C(N)=O)CCCC2)C1=O
ED50 (Mus musculus [16]): 34.4 mg/kg

COc1cc(NC(C)CCCNC(=O)NNC(=O)NC(c2ccccc2)c2ccccc2)c2ncccc2c1 (centres undefined)
pIC50 (MCF7 [5]): 6.00 | pIC50 (A549 [6]): 5.40 | pIC50 (A549 [7]): 5.82

CCCCNC(=O)NNC(=O)c1ccc(Nc2nccc(-c3ccncc3)n2)cc1
pIC50 (HepG2): 5.66 | pIC50 (A549 [14]): 5.08 | pEC50 [15]: 5.98

COc1cc(NC(C)CCCNC(=O)NNC(=O)/C=C/c2ccc3c(c2)OCO3)c2ncccc2c1 (centres undefined)
pIC50 (MCF7 [4]): 7.52

CCCCCCCCCCCCCNC(=O)NNC(=O)c1cccc(Br)c1
pIC50 (Cholinesterase): 4.66

COc1cc(NC(C)CCCNC(=O)NNC(=O)NO)c2ncccc2c1 (centres undefined)
pIC50 (MCF7 [5]): 6.00 | pIC50 (A549 [6]): 5.40 | pIC50 (A549 [7]): 5.82

O=C(NCCc1ccccc1)NNC(=O)c1ccc(Nc2nccc(-c3ccncc3)n2)cc1
pIC50 (HepG2): 5.66 | pIC50 (A549 [14]): 5.08 | pEC50 [15]: 5.98

Cc1nc(NC(=O)Nc2ccccc2)sc1C(=O)NNC(=O)Nc1ccccc1
Activity (UO-31): 14.8%

O=C(NNC(=O)c1cc2ccccc2[nH]1)Nc1ccc(Cl)c(C(F)(F)F)c1
pIC50 (MCF7 [13]): 5.92

O=C(Cn1c(Cc2ccccc2)nc2ccccc21)NNC(=O)Nc1ccccc1
Activity [17]: 126%

O=C(NNC(=S)NCc1ccccc1)c1ccc(Nc2nccc(-c3ccccn3)n2)cc1
pIC50 (HepG2): 5.66 | pIC50 (A549 [14]): 5.08 | pEC50 [15]: 5.98

Cc1ccc(N(C(=O)CNN2C(=O)C(=O)N(C(C)C)C2=O)C2(C(N)=O)CCCCC2)cc1
ED50 (Mus musculus [16]): 44.5 mg/kg

COc1cc(NC(C)CCCNC(=O)NNC(=O)/C=C/c2ccccc2F)c2ncccc2c1 (centres undefined)
pIC50 (MCF7 [4]): 7.52

COc1cc(NC(C)CCCNC(=O)NNC(=O)NC2CCCCC2)c2ncccc2c1 (centres undefined)
pIC50 (MCF7 [5]): 6.00 | pIC50 (A549 [6]): 5.40 | pIC50 (A549 [7]): 5.82

CCOC(=O)C1(NC(=O)NNS(=O)(=O)c2ccccc2Cl)CC1(C)C (centres undefined)
ED50 (Mus musculus [2]): 82.6 mg/kg | ED50 (Mus musculus [16]): 82.6 mg/kg

O=C(NCCc1ccccc1)NNC(=O)n1nnc2ccccc21
pIC50 (MCF7 [1]): 4.10
